Results as given in PubChem BioAssay (NCI).
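Step 1: Grow cells in 96-well plates. Step 2: Expose to compound for 48 hours at 5 concentrations. Step 3: Interpolate endpoints linearly; if unreached, use highest concentration. At the GI50, growth is halved. The concentration for full growth arrest is given as TGI.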

Columns and labels:
Assay in all cases: inhibition of tumour cell growth, NCI panel, 48 h
[1] = test system: LOX IMVI melanoma
[2] = test system: PC-3 prostate
[3] = test system: HCT-15 colon
[4] = test system: OVCAR-5 ovarian
[5] = test system: NCI/ADR-RES ovarian
[6] = test system: SNB-75 CNS
[7] = test system: 786-0 renal
[8] = test system: BT-549 breast
[9] = test system: SF-539 CNS
[10] = test system: EKVX NSCLC
[11] = test system: IGROV1 ovarian
[12] = test system: MALME-3M melanoma
[13] = test system: HOP-62 NSCLC
[14] = test system: RPMI-8226 leukemia
[15] = test system: UACC-62 melanoma
[16] = test system: HL-60(TB) leukemia
[17] = test system: MDA-MB-231 breast
[18] = test system: HOP-92 NSCLC
[19] = test system: HT29 colon
[20] = test system: U251 CNS
[21] = test system: NCI-H522 lung
[22] = test system: MDA-MB-468 breast
[23] = test system: HCT-116 colon
[24] = test system: TK-10 renal
[25] = test system: SW-620 colon
[26] = test system: NCI-H226 lung
[27] = test system: OVCAR-3 ovarian
[28] = test system: MOLT-4 leukemia
[29] = test system: RXF 393 renal
[30] = test system: UO-31 renal
[31] = test system: A549 NSCLC
[32] = test system: NCI-H460 lung
[33] = test system: A498 renal
[34] = test system: MCF7 breast
[35] = test system: K-562 leukemia
[36] = test system: MDA-MB-435
[37] = test system: KM12 colon
[38] = test system: HCC-2998 colon
[39] = test system: DU-145 prostate
[40] = test system: CAKI-1 renal
[41] = test system: SK-MEL-2 melanoma
[42] = test system: SR leukemia
[43] = test system: SNB-19 CNS
[44] = test system: SF-268 CNS
[45] = test system: OVCAR-8 ovarian
[46] = test system: M14 melanoma
[47] = test system: SK-OV-3 ovarian
[48] = test system: T-47D breast
[49] = test system: SF-295 CNS
[50] = test system: SK-MEL-5 melanoma
[51] = test system: ACHN renal
[52] = test system: CCRF-CEM leukemia
[53] = test system: NCI-H23 lung
[54] = test system: COLO 205 colon
[55] = test system: OVCAR-4 ovarian
[56] = test system: SN12C renal
[57] = test system: HS 578T breast
[58] = test system: UACC-257 melanoma
[59] = test system: SK-MEL-28 melanoma

Question: With COc1cccc(/C=C/c2nc3ccccc3c(=O)n2CC(=O)Nc2ccccc2)c1 as the molecule, how does the GI50 [1] read?
Answer: 5.94 µM

Question: What about the TGI [1] of the same molecule?
Answer: > 100 µM

Question: What about the GI50 [2] of the same molecule?
Answer: > 100 µM

Question: What about the TGI [2] of the same molecule?
Answer: > 100 µM

Question: What about the GI50 [3] of the same molecule?
Answer: 39.9 µM

Question: And the TGI [3]?
Answer: > 100 µM

Question: What about the GI50 [4] of the same molecule?
Answer: 19.3 µM

Question: And the TGI [4]?
Answer: > 100 µM

Question: What about the GI50 [5] of the same molecule?
Answer: 7.72 µM

Question: And the TGI [5]?
Answer: 64.9 µM

Question: What about the GI50 [6] of the same molecule?
Answer: 3.15 µM

Question: And the TGI [6]?
Answer: 18.1 µM

Question: What about the GI50 [7] of the same molecule?
Answer: 3.08 µM

Question: And the TGI [7]?
Answer: 12.6 µM

Question: What about the GI50 [8] of the same molecule?
Answer: > 100 µM

Question: And the TGI [8]?
Answer: > 100 µM

Question: And the GI50 [9]?
Answer: 7.51 µM

Question: And the TGI [9]?
Answer: 28.5 µM

Question: What about the GI50 [10] of the same molecule?
Answer: > 100 µM

Question: What about the TGI [10] of the same molecule?
Answer: > 100 µM

Question: What about the GI50 [11] of the same molecule?
Answer: 39.1 µM

Question: And the TGI [11]?
Answer: > 100 µM

Question: And the GI50 [12]?
Answer: 12.1 µM

Question: What about the TGI [12] of the same molecule?
Answer: 65.7 µM

Question: What about the GI50 [13] of the same molecule?
Answer: 3.89 µM

Question: What about the TGI [13] of the same molecule?
Answer: 14.4 µM

Question: What about the GI50 [14] of the same molecule?
Answer: > 100 µM

Question: And the TGI [14]?
Answer: > 100 µM

Question: And the GI50 [15]?
Answer: 88.5 µM

Question: What about the TGI [15] of the same molecule?
Answer: > 100 µM

Question: What about the GI50 [16] of the same molecule?
Answer: > 100 µM

Question: And the TGI [16]?
Answer: > 100 µM

Question: And the GI50 [17]?
Answer: 5.97 µM

Question: And the TGI [17]?
Answer: 20.7 µM

Question: What about the GI50 [18] of the same molecule?
Answer: 11 µM

Question: And the TGI [18]?
Answer: 51.3 µM

Question: What about the GI50 [19] of the same molecule?
Answer: > 100 µM

Question: What about the TGI [19] of the same molecule?
Answer: > 100 µM

Question: And the GI50 [20]?
Answer: 4.87 µM

Question: And the TGI [20]?
Answer: 19 µM

Question: And the GI50 [21]?
Answer: 31.6 µM

Question: And the TGI [21]?
Answer: > 100 µM

Question: What about the GI50 [22] of the same molecule?
Answer: 9.17 µM

Question: What about the TGI [22] of the same molecule?
Answer: > 100 µM

Question: What about the GI50 [23] of the same molecule?
Answer: 5.48 µM

Question: And the TGI [23]?
Answer: 56 µM

Question: And the GI50 [24]?
Answer: 9.51 µM

Question: And the TGI [24]?
Answer: 30 µM

Question: What about the GI50 [25] of the same molecule?
Answer: > 100 µM

Question: And the TGI [25]?
Answer: > 100 µM

Question: What about the GI50 [26] of the same molecule?
Answer: 3.22 µM

Question: What about the TGI [26] of the same molecule?
Answer: 15.2 µM

Question: What about the GI50 [27] of the same molecule?
Answer: 17.6 µM

Question: What about the TGI [27] of the same molecule?
Answer: > 100 µM

Question: What about the GI50 [28] of the same molecule?
Answer: > 100 µM

Question: And the TGI [28]?
Answer: > 100 µM

Question: And the GI50 [29]?
Answer: 4.23 µM

Question: What about the TGI [29] of the same molecule?
Answer: 50.9 µM

Question: And the GI50 [30]?
Answer: 2890 nM

Question: And the TGI [30]?
Answer: 14.1 µM

Question: And the GI50 [31]?
Answer: 3.81 µM

Question: What about the TGI [31] of the same molecule?
Answer: > 100 µM

Question: What about the GI50 [32] of the same molecule?
Answer: 12.6 µM

Question: And the TGI [32]?
Answer: > 100 µM

Question: And the GI50 [33]?
Answer: 3.2 µM

Question: What about the TGI [33] of the same molecule?
Answer: 14.5 µM

Question: What about the GI50 [34] of the same molecule?
Answer: 27 µM

Question: What about the TGI [34] of the same molecule?
Answer: > 100 µM

Question: What about the GI50 [35] of the same molecule?
Answer: > 100 µM

Question: What about the TGI [35] of the same molecule?
Answer: > 100 µM

Question: And the GI50 [36]?
Answer: > 100 µM

Question: What about the TGI [36] of the same molecule?
Answer: > 100 µM

Question: What about the GI50 [37] of the same molecule?
Answer: > 100 µM

Question: And the TGI [37]?
Answer: > 100 µM

Question: What about the GI50 [38] of the same molecule?
Answer: > 100 µM

Question: And the TGI [38]?
Answer: > 100 µM

Question: And the GI50 [39]?
Answer: > 100 µM

Question: What about the TGI [39] of the same molecule?
Answer: > 100 µM

Question: And the GI50 [40]?
Answer: 4.31 µM

Question: And the TGI [40]?
Answer: 30.1 µM

Question: And the GI50 [41]?
Answer: > 100 µM

Question: And the TGI [41]?
Answer: > 100 µM

Question: What about the GI50 [42] of the same molecule?
Answer: > 100 µM

Question: And the TGI [42]?
Answer: > 100 µM

Question: And the GI50 [43]?
Answer: 21.7 µM

Question: And the TGI [43]?
Answer: > 100 µM

Question: What about the GI50 [44] of the same molecule?
Answer: 36.8 µM

Question: What about the TGI [44] of the same molecule?
Answer: > 100 µM

Question: What about the GI50 [45] of the same molecule?
Answer: 18.8 µM

Question: What about the TGI [45] of the same molecule?
Answer: > 100 µM

Question: And the GI50 [46]?
Answer: 12.5 µM

Question: What about the TGI [46] of the same molecule?
Answer: 56.6 µM

Question: And the GI50 [47]?
Answer: 5.87 µM

Question: And the TGI [47]?
Answer: 40.9 µM

Question: What about the GI50 [48] of the same molecule?
Answer: 2760 nM

Question: What about the TGI [48] of the same molecule?
Answer: 18.6 µM

Question: What about the GI50 [49] of the same molecule?
Answer: 5.23 µM

Question: And the TGI [49]?
Answer: 28.6 µM

Question: What about the GI50 [50] of the same molecule?
Answer: 59.3 µM

Question: And the TGI [50]?
Answer: > 100 µM

Question: What about the GI50 [51] of the same molecule?
Answer: 3.47 µM

Question: What about the TGI [51] of the same molecule?
Answer: 12.5 µM

Question: And the GI50 [52]?
Answer: > 100 µM

Question: And the TGI [52]?
Answer: > 100 µM

Question: What about the GI50 [53] of the same molecule?
Answer: 8.91 µM

Question: What about the TGI [53] of the same molecule?
Answer: 49.3 µM

Question: And the GI50 [54]?
Answer: > 100 µM

Question: And the TGI [54]?
Answer: > 100 µM

Question: And the GI50 [55]?
Answer: 6.87 µM

Question: And the TGI [55]?
Answer: > 100 µM

Question: What about the GI50 [56] of the same molecule?
Answer: 6.58 µM

Question: And the TGI [56]?
Answer: > 100 µM

Question: And the GI50 [57]?
Answer: 5.91 µM

Question: What about the TGI [57] of the same molecule?
Answer: > 100 µM

Question: And the GI50 [58]?
Answer: > 100 µM

Question: And the TGI [58]?
Answer: > 100 µM

Question: What about the GI50 [59] of the same molecule?
Answer: 61.4 µM

Question: What about the TGI [59] of the same molecule?
Answer: > 100 µM
